According to ChEMBL document CHEMBL1201862, “PubChem BioAssay data set” (2004):
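Interpolation was linear, between the two tested concentrations surrounding the appropriate level; five concentrations were tested over 48 hours in 96-well plates. GI50 = concentration required for 50% inhibition of growth.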 Calls of active or inactive are those of the source. No stated cut-off is given here; in the data, active = GI50 up to about 1.1 µM and inactive = higher.

What was measured:
Test in all cases: growth of human tumour cells (NCI), 48 h
[1] = tested on: HOP-92
[2] = tested on: A549
[3] = tested on: HCT-116
[4] = tested on: HCT-15
[5] = tested on: HOP-62
[6] = tested on: NCI-H460
[7] = tested on: M14
[8] = tested on: SNB-75
[9] = tested on: CAKI-1
[10] = tested on: XF498
[11] = tested on: SNB-19
[12] = tested on: DLD-1
[13] = tested on: SK-OV-3
[14] = tested on: IGROV-1
[15] = tested on: HT-29
[16] = tested on: EKVX
[17] = tested on: SF-539
[18] = tested on: UACC-257
[19] = tested on: 786-0
[20] = tested on: CCRF-CEM
[21] = tested on: U-251
[22] = tested on: K562
[23] = tested on: HL-60
[24] = tested on: DMS-114
[25] = tested on: LXFL 529
[26] = tested on: LOX IMVI
[27] = tested on: OVCAR-4
[28] = tested on: HCC 2998
[29] = tested on: SK-MEL-2
[30] = tested on: RPMI-8226
[31] = tested on: NCI-H23
[32] = tested on: MOLT-4
[33] = tested on: SW-620
[34] = tested on: SR
[35] = tested on: KM12
[36] = tested on: OVCAR-8
[37] = tested on: UO-31
[38] = tested on: SF-295
[39] = tested on: UACC-62
[40] = tested on: Malme-3M
[41] = tested on: SF-268
[42] = tested on: ACHN
[43] = tested on: OVCAR-3
[44] = tested on: SNB-78
[45] = tested on: NCI-H522
[46] = tested on: HOP-18
[47] = tested on: KM-20L2
[48] = tested on: OVCAR-5
[49] = tested on: DMS-273
[50] = tested on: SK-MEL-5
[51] = tested on: M19-MEL
[52] = tested on: COLO 205
[53] = tested on: A498
[54] = tested on: TK-10
[55] = tested on: SN12C
[56] = tested on: RXF 393
[57] = tested on: SK-MEL-28
[58] = tested on: NCI-H226

Measured: GI50

COC(=O)/C=C(C)/C=C/c1cc(C(C)=O)c(C)o1
> 100 µM: [4]
inactive: [1] 23.2 µM | [2] 66.7 µM | [3] > 100 µM | [5] > 100 µM | [6] > 100 µM | [7] > 100 µM | [8] 68.4 µM | [9] > 100 µM | [10] > 100 µM | [11] > 100 µM | [12] 43.8 µM | [13] > 100 µM | [14] > 100 µM | [15] > 100 µM | [16] 51.9 µM | [17] > 100 µM | [18] > 100 µM | [19] > 100 µM | [20] > 100 µM | [21] > 100 µM | [22] 62.1 µM | [23] > 100 µM | [24] 93.3 µM | [25] 93.1 µM | [26] > 100 µM | [27] 94.2 µM | [28] > 100 µM | [29] > 100 µM | [30] 54.7 µM | [31] > 100 µM | [32] 62.5 µM | [33] > 100 µM | [34] > 100 µM | [35] > 100 µM | [36] > 100 µM | [37] 86.9 µM | [38] > 100 µM | [39] 82 µM | [40] > 100 µM | [41] > 100 µM | [42] > 100 µM | [43] > 100 µM | [44] > 100 µM | [45] > 100 µM | [46] 46.9 µM | [47] > 100 µM | [48] 78.7 µM

Cn1cc2ccccc2c1-c1nc(F)nc(Oc2ccc3c(c2)CC[C@@H]2C3CC[C@@]3(C)C2C[C@H](O)[C@@H]3O)n1 (some centres undefined)
inactive: [1] 22.3 µM | [49] 10.3 µM | [2] 18.6 µM | [3] 14.3 µM | [5] 4.45 µM | [6] 30.9 µM | [7] 15.9 µM | [8] 20.5 µM | [9] 18.1 µM | [10] 22.4 µM | [50] 17.7 µM | [51] 16.9 µM | [11] 13.8 µM | [12] 10.3 µM | [13] 21.9 µM | [14] 20.7 µM | [15] 19.3 µM | [16] 17.7 µM | [17] 13.5 µM | [18] 23.5 µM | [19] 16.4 µM | [52] 17.7 µM | [20] 2.66 µM | [21] 10.3 µM | [22] 18.7 µM | [23] 22.4 µM | [24] 12.3 µM | [53] 27.3 µM | [25] 13.8 µM | [54] 20.4 µM | [28] 15.4 µM | [29] 13 µM | [30] 16.7 µM | [31] 18.3 µM | [32] 5.43 µM | [33] 4.14 µM | [35] 17.7 µM | [36] 15.8 µM | [55] 13.7 µM | [37] 16.4 µM | [38] 17.6 µM | [39] 17.5 µM | [40] 24.8 µM | [41] 13.1 µM | [42] 20.2 µM | [43] 20.7 µM | [56] 19.4 µM | [44] 19.6 µM | [45] 11.8 µM | [57] 19.7 µM | [46] 22.3 µM | [47] 15.8 µM | [48] 19.2 µM
12.2 µM: [4]

CCOC(=O)C(NO)C(Sc1ccccc1)c1ccc(OC)cc1 (centres undefined)
68.9 µM: [4]
inactive: [1] > 100 µM | [49] > 100 µM | [2] 38.6 µM | [3] 34.9 µM | [5] 88.3 µM | [6] 44.4 µM | [7] > 100 µM | [8] 55.5 µM | [10] 31 µM | [50] 30.7 µM | [51] 69.2 µM | [11] > 100 µM | [12] 72.9 µM | [13] > 100 µM | [14] > 100 µM | [15] > 100 µM | [16] > 100 µM | [17] > 100 µM | [18] 65.9 µM | [19] > 100 µM | [52] 35.3 µM | [21] > 100 µM | [24] 64.7 µM | [25] > 100 µM | [26] > 100 µM | [54] > 100 µM | [28] > 100 µM | [29] > 100 µM | [30] 55.3 µM | [31] > 100 µM | [32] 42.1 µM | [33] > 100 µM | [34] > 100 µM | [35] 78.5 µM | [36] > 100 µM | [55] > 100 µM | [37] 68.5 µM | [38] > 100 µM | [39] 37.6 µM | [40] > 100 µM | [41] > 100 µM | [42] 71.3 µM | [58] 81.8 µM | [43] 91 µM | [56] 23.9 µM | [44] > 100 µM | [45] 34.8 µM | [57] > 100 µM | [46] > 100 µM | [47] > 100 µM | [48] > 100 µM

CN(C)C(=S)/N=c1\ssc(=S)n1-c1ccccc1
14.7 µM: [4]
inactive: [1] 20.4 µM | [49] 20.9 µM | [2] 25.3 µM | [3] 13.7 µM | [5] 34.2 µM | [6] 16.1 µM | [7] 15 µM | [8] 17.4 µM | [9] 19.2 µM | [10] 14.7 µM | [50] 32.7 µM | [51] 16.3 µM | [11] 39.6 µM | [12] 13.8 µM | [13] 83.9 µM | [14] 17 µM | [15] 18.9 µM | [16] 23.4 µM | [17] 16.8 µM | [18] 15.7 µM | [19] 16.8 µM | [21] 15.8 µM | [22] 17.1 µM | [23] 18.1 µM | [24] 15.9 µM | [53] 21.3 µM | [25] 12.4 µM | [27] 15.9 µM | [54] 16.9 µM | [28] 19.6 µM | [29] 8.75 µM | [31] 24.2 µM | [33] 10.7 µM | [35] 5.38 µM | [36] 15.2 µM | [55] 15.3 µM | [37] 23.3 µM | [38] 24.2 µM | [39] 16 µM | [40] 16.9 µM | [41] 16.9 µM | [42] 16.7 µM | [58] 10.1 µM | [56] 18.7 µM | [44] 19.4 µM | [45] 14.5 µM | [57] 16.7 µM | [46] > 100 µM | [47] 16.6 µM | [48] 16 µM
active: [20] 0.36 µM

CC12CCC3C(CCC4CC(OC(=O)Cc5ccc(N(CCCl)CCCl)cc5)CCC43C)C1CCC(=O)N2 (centres undefined)
14.7 µM: [4]
inactive: [1] 16.1 µM | [49] 12.9 µM | [2] 15.5 µM | [3] 15.1 µM | [6] 7.26 µM | [7] 17.7 µM | [8] 15 µM | [9] 15.9 µM | [10] 16.5 µM | [50] 18.2 µM | [51] 17.2 µM | [11] 18.3 µM | [12] 18.7 µM | [13] 18 µM | [14] 16.2 µM | [15] 16.4 µM | [16] 16.4 µM | [17] 15.1 µM | [19] 15.5 µM | [52] 17.3 µM | [20] 6.25 µM | [21] 15.1 µM | [22] 16.9 µM | [23] 4.84 µM | [24] 12.8 µM | [53] 16.8 µM | [25] 16.2 µM | [27] 15.9 µM | [54] 20.6 µM | [28] 18.9 µM | [29] 15.5 µM | [30] 15.2 µM | [31] 13 µM | [32] 7.41 µM | [33] 14 µM | [34] 3.67 µM | [35] 18.2 µM | [36] 15.8 µM | [55] 15.6 µM | [37] 19.7 µM | [38] 16.3 µM | [40] 18.2 µM | [41] 17.1 µM | [42] 11.2 µM | [58] 15.7 µM | [43] 18.2 µM | [56] 14.5 µM | [44] 24.4 µM | [45] 14.7 µM | [57] 17.1 µM | [46] 17.3 µM | [47] 17.4 µM
